Results published in PubChem BioAssay AID256 (DTP/NCI, 2004).
Several values for one entry are separate records, joined by “and”; a condition that tells them apart may be missing. Equal values may be shown once. Toxic doses and inconclusive results are not listed. How the source made its calls: active means survival T/C of 150% or more; inactive means T/C below 125% in these data.

System: CD2F1 mice, L1210 leukemia ip, survival T/C
Assay: NCI In Vivo Anticancer Drug Screen. Data for tumor model L1210 Leukemia (intraperitoneal) in CD2F1 (CDF1) mice
Settings: higher = longer survival
Method in brief: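 Antitumor effect is scored in animals hosting a serially transplanted tumor. Values compare compound-dosed animals against vehicle-only controls as a simple quotient.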

Measured: T/C

CC1OC(OC2C(O)CC(OC3C(O)CC(OC4CCC5(C)C(CCC6C5CCC5(C)C(C7=CC(=O)OC7)CCC65O)C4)OC3C)OC2C)CC(O)C1O (centres undefined)
inactive: endpoint: median survival time, dose: 0.5 mg/kg/injection, schedule: Q01DX005 (iv), vehicle: water 109 % of control | endpoint: median survival time, dose: 0.5 mg/kg/injection, schedule: Q01DX010 (ip), vehicle: water 106 % of control | endpoint: median survival time, dose: 1.0 mg/kg/injection, schedule: Q01DX005 (iv), vehicle: water 108 % of control | endpoint: median survival time, dose: 1.0 mg/kg/injection, schedule: Q01DX010 (ip), vehicle: water 108 % of control | endpoint: median survival time, dose: 1.0 mg/kg/injection, schedule: Q04DX003 (ip), vehicle: water 101 % of control | endpoint: median survival time, dose: 1.0 mg/kg/injection, schedule: Q04DX003 (iv), vehicle: water 111 % of control | endpoint: median survival time, dose: 2.0 mg/kg/injection, schedule: Q01DX005 (iv), vehicle: water 97 % of control | endpoint: median survival time, dose: 2.0 mg/kg/injection, schedule: Q01DX010 (ip), vehicle: water 109 % of control | endpoint: median survival time, dose: 2.0 mg/kg/injection, schedule: Q04DX003 (ip), vehicle: water 101 % of control | endpoint: median survival time, dose: 2.0 mg/kg/injection, schedule: Q04DX003 (iv), vehicle: water 109 % of control | endpoint: median survival time, dose: 4.0 mg/kg/injection, schedule: Q01DX005 (iv), vehicle: water 108 % of control | endpoint: median survival time, dose: 4.0 mg/kg/injection, schedule: Q01DX010 (ip), vehicle: water 108 % of control | endpoint: median survival time, dose: 4.0 mg/kg/injection, schedule: Q04DX003 (ip), vehicle: water 107 % of control | endpoint: median survival time, dose: 4.0 mg/kg/injection, schedule: Q04DX003 (iv), vehicle: water 110 % of control | endpoint: median survival time, dose: 8.0 mg/kg/injection, schedule: Q01DX005 (iv), vehicle: water 90 % of control | endpoint: median survival time, dose: 8.0 mg/kg/injection, schedule: Q04DX003 (ip), vehicle: water 98 % of control | endpoint: median survival time, dose: 8.0 mg/kg/injection, schedule: Q04DX003 (iv), vehicle: water 110 % of control | endpoint: median survival time, dose: 16.0 mg/kg/injection, schedule: Q04DX003 (ip), vehicle: water 101 % of control | endpoint: median survival time, dose: 16.0 mg/kg/injection, schedule: Q04DX003 (iv), vehicle: water 76 % of control

CC(C)(Cc1ccc([N+](=O)[O-])cc1)[N+](=O)[O-]
inactive: endpoint: mean survival time, dose: 75.0 mg/kg/injection, schedule: Q01DX001 (ip), vehicle: saline 98 % of control | endpoint: mean survival time, dose: 150.0 mg/kg/injection, schedule: Q01DX001 (ip), vehicle: saline 102 % of control

C1CCC(C2CCCC[N-]2)[N-]C1.[Cl][Pt].[NH-]CC(=O)O (centres undefined)
inactive: endpoint: median survival time, dose: 10.0 mg/kg/injection, schedule: Q04DX003 (ip), vehicle: saline 101 % of control | endpoint: median survival time, dose: 20.0 mg/kg/injection, schedule: Q04DX003 (ip), vehicle: saline 105 % of control | endpoint: median survival time, dose: 40.0 mg/kg/injection, schedule: Q04DX003 (ip), vehicle: saline 98 % of control | endpoint: median survival time, dose: 80.0 mg/kg/injection, schedule: Q04DX003 (ip), vehicle: saline 95 % of control and 96 % of control | endpoint: median survival time, dose: 160.0 mg/kg/injection, schedule: Q04DX003 (ip), vehicle: saline 90 % of control | endpoint: median survival time, dose: 320.0 mg/kg/injection, schedule: Q04DX003 (ip), vehicle: saline 101 % of control

Cc1ccc2c(c1)NP(=S)(c1ccccc1)N2 (centres undefined)
inactive: endpoint: mean survival time, dose: 100.0 mg/kg/injection, schedule: Q01DX009 (ip), vehicle: saline with Tween-80 91 % of control | endpoint: mean survival time, dose: 200.0 mg/kg/injection, schedule: Q01DX009 (ip), vehicle: saline with Tween-80 86 % of control | endpoint: mean survival time, dose: 400.0 mg/kg/injection, schedule: Q01DX009 (ip), vehicle: saline with Tween-80 94 % of control

O=C(OCC(OC(=O)c1ccccc1)C(OC(=O)c1ccccc1)C(O)C(O)CO)c1ccccc1 (centres undefined) (tested in a mixture with another compound)
inactive: endpoint: mean survival time, dose: 100.0 mg/kg/injection, schedule: Q04DX002 (ip), vehicle: saline with Tween-80 114 % of control | endpoint: mean survival time, dose: 200.0 mg/kg/injection, schedule: Q04DX002 (ip), vehicle: saline with Tween-80 100 % of control

CC(O)C(=O)[O][Hg][c]1ccccc1 (centres undefined)
inactive: endpoint: mean survival time, dose: 10.0 mg/kg/injection, schedule: Q04DX003 (ip), vehicle: saline with Tween-80 92 % of control

CC12CC(C(=O)O)C3(O)CC(C)(C1)CC(C)(C2)C3 (centres undefined) (tested in a mixture with another compound)
inactive: endpoint: mean survival time, dose: 12.5 mg/kg/injection, schedule: Q01DX009 (ip), vehicle: Klucel (hydroxypropylcellulose) (HPC) 95 % of control and 107 % of control | endpoint: mean survival time, dose: 25.0 mg/kg/injection, schedule: Q01DX009 (ip), vehicle: Klucel (hydroxypropylcellulose) (HPC) 101 % of control and 109 % of control | endpoint: mean survival time, dose: 50.0 mg/kg/injection, schedule: Q01DX009 (ip), vehicle: Klucel (hydroxypropylcellulose) (HPC) 87 % of control and 107 % of control | endpoint: mean survival time, dose: 100.0 mg/kg/injection, schedule: Q01DX009 (ip), vehicle: Klucel (hydroxypropylcellulose) (HPC) 98 % of control and 110 % of control | endpoint: mean survival time, dose: 200.0 mg/kg/injection, schedule: Q01DX009 (ip), vehicle: Klucel (hydroxypropylcellulose) (HPC) 101 % of control and 104 % of control | endpoint: mean survival time, dose: 400.0 mg/kg/injection, schedule: Q01DX009 (ip), vehicle: Klucel (hydroxypropylcellulose) (HPC) 98 % of control
